One block for each compound: values may come before it.
Tested on: PDC 899932-113-R3-J6 complex spheroid viability
Test: Anticancer human tumor 899932-113-R3-J6-PDC patient-derived melanoma cell line growth inhibition [RAS]
Conditions: for viability, T/C: stronger effect = lower value
Summary of the method: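 Multi-cell-type spheroids: tumor cells plus HUVEC endothelial cells and mesenchymal stem cells. RAS-pathway inhibitors were combined with targeted agents, each dosed in half-log steps down from clinical Cmax, or from 10 microM when Cmax was unknown.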

[1] = curve of first compound, second compound 0.000949 µM
[2] = curve of first compound, second compound 0.003 µM
[3] = curve of first compound, second compound 0.00949 µM
[4] = curve of first compound, second compound 0.03 µM
[5] = curve of first compound, second compound 0.0949 µM
[6] = curve of first compound, second compound 0.3 µM
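Wherever viability, T/C is given: spheroids exposed to agents for seven days before readout; 100% = DMSO vehicle control wells.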

IC50 [1]: 25.9 nM
IC50 [2]: 20.1 nM
IC50 [3]: 21.6 nM
IC50 [4]: 26.8 nM
IC50 [5]: 22.5 nM
IC50 [6]: 18.8 nM
SMILES: CC1(C)CCC(Nc2ncc(C(F)(F)F)c(-c3c[nH]c4c(P(C)(C)=O)c(C#N)ccc34)n2)CN1 (stereo unspecified) + CCn1c(-c2cccnc2C(C)OC)c2c3cc(ccc31)N1CCOC(CC(NC(=O)C(C(C)C)N(C)C(=O)C3(F)CCN(C(=O)C#CC(C)(C)N(C)C)CC3)C(=O)N3CCCC(N3)C(=O)OCC(C)(C)C2)C1
viability, T/C (second compound 0.000949 µM, first compound 0.000949 µM): 105%
viability, T/C (second compound 0.000949 µM, first compound 0.003 µM): 75.8%
viability, T/C (second compound 0.000949 µM, first compound 0.00949 µM): 62.9%
viability, T/C (second compound 0.000949 µM, first compound 0.03 µM): 52.4%
viability, T/C (second compound 0.000949 µM, first compound 0.0949 µM): 34%
viability, T/C (second compound 0.000949 µM, first compound 0.3 µM): 15.1%
viability, T/C (second compound 0.003 µM, first compound 0.000949 µM): 112%
viability, T/C (second compound 0.003 µM, first compound 0.003 µM): 78.6%
viability, T/C (second compound 0.003 µM, first compound 0.00949 µM): 61.3%
viability, T/C (second compound 0.003 µM, first compound 0.03 µM): 43.4%
viability, T/C (second compound 0.003 µM, first compound 0.0949 µM): 37.8%
viability, T/C (second compound 0.003 µM, first compound 0.3 µM): 15.5%
viability, T/C (second compound 0.00949 µM, first compound 0.000949 µM): 98.1%
viability, T/C (second compound 0.00949 µM, first compound 0.003 µM): 86.6%
viability, T/C (second compound 0.00949 µM, first compound 0.00949 µM): 61.9%
viability, T/C (second compound 0.00949 µM, first compound 0.03 µM): 41%
viability, T/C (second compound 0.00949 µM, first compound 0.0949 µM): 34.4%
viability, T/C (second compound 0.00949 µM, first compound 0.3 µM): 15%
viability, T/C (second compound 0.03 µM, first compound 0.000949 µM): 104%
viability, T/C (second compound 0.03 µM, first compound 0.003 µM): 88.2%
viability, T/C (second compound 0.03 µM, first compound 0.00949 µM): 64.7%
viability, T/C (second compound 0.03 µM, first compound 0.03 µM): 46.5%
viability, T/C (second compound 0.03 µM, first compound 0.0949 µM): 36.2%
viability, T/C (second compound 0.03 µM, first compound 0.3 µM): 20.2%
viability, T/C (second compound 0.0949 µM, first compound 0.000949 µM): 100%
viability, T/C (second compound 0.0949 µM, first compound 0.003 µM): 75.6%
viability, T/C (second compound 0.0949 µM, first compound 0.00949 µM): 59.8%
viability, T/C (second compound 0.0949 µM, first compound 0.03 µM): 47.4%
viability, T/C (second compound 0.0949 µM, first compound 0.0949 µM): 35.6%
viability, T/C (second compound 0.0949 µM, first compound 0.3 µM): 20.6%
viability, T/C (second compound 0.3 µM, first compound 0.000949 µM): 79.3%
viability, T/C (second compound 0.3 µM, first compound 0.003 µM): 71.8%
viability, T/C (second compound 0.3 µM, first compound 0.00949 µM): 57.1%
viability, T/C (second compound 0.3 µM, first compound 0.03 µM): 43.5%
viability, T/C (second compound 0.3 µM, first compound 0.0949 µM): 37.4%
viability, T/C (second compound 0.3 µM, first compound 0.3 µM): 28.4%

IC50 (curve of compound): < 31.6 nM
SMILES: CC(=O)OC12COC1CC(O)C1(C)C(=O)C(O)C3=C(C)C(OC(=O)C(O)C(NC(=O)OC(C)(C)C)c4ccccc4)CC(O)(C(OC(=O)c4ccccc4)C21)C3(C)C (stereo unspecified)
viability, T/C (compound 0.0316 µM): 27.8% [middle of 4 runs]
viability, T/C (compound 0.1 µM): 33.9% [middle of 4 runs]
viability, T/C (compound 0.316 µM): 37.7% [middle of 4 runs]
viability, T/C (compound 1 µM): 49.9% [middle of 4 runs]
viability, T/C (compound 3.16 µM): 73.4% [middle of 4 runs]
viability, T/C (compound 10 µM): 64.2% [middle of 4 runs]

IC50 [1]: 1620 nM
IC50 [2]: 1870 nM
IC50 [3]: 1380 nM
IC50 [4]: 1370 nM
IC50 [5]: 650 nM
IC50 [6]: 153 nM
SMILES: CC(Nc1ccc2c(c1)OCCn1cc(N3C(=O)OCC3C(F)F)nc1-2)C(N)=O (stereo unspecified) + CCn1c(-c2cccnc2C(C)OC)c2c3cc(ccc31)N1CCOC(CC(NC(=O)C(C(C)C)N(C)C(=O)C3(F)CCN(C(=O)C#CC(C)(C)N(C)C)CC3)C(=O)N3CCCC(N3)C(=O)OCC(C)(C)C2)C1
viability, T/C (second compound 0.000949 µM, first compound 0.0316 µM): 94.8%
viability, T/C (second compound 0.000949 µM, first compound 0.1 µM): 78.5%
viability, T/C (second compound 0.000949 µM, first compound 0.316 µM): 64.5%
viability, T/C (second compound 0.000949 µM, first compound 1 µM): 56.1%
viability, T/C (second compound 0.000949 µM, first compound 3.16 µM): 43.4%
viability, T/C (second compound 0.000949 µM, first compound 10 µM): 36.1%
viability, T/C (second compound 0.003 µM, first compound 0.0316 µM): 90.1%
viability, T/C (second compound 0.003 µM, first compound 0.1 µM): 80.9%
viability, T/C (second compound 0.003 µM, first compound 0.316 µM): 67%
viability, T/C (second compound 0.003 µM, first compound 1 µM): 55.6%
viability, T/C (second compound 0.003 µM, first compound 3.16 µM): 46%
viability, T/C (second compound 0.003 µM, first compound 10 µM): 34.1%
viability, T/C (second compound 0.00949 µM, first compound 0.0316 µM): 94.7%
viability, T/C (second compound 0.00949 µM, first compound 0.1 µM): 80.5%
viability, T/C (second compound 0.00949 µM, first compound 0.316 µM): 66.4%
viability, T/C (second compound 0.00949 µM, first compound 1 µM): 51.2%
viability, T/C (second compound 0.00949 µM, first compound 3.16 µM): 44.6%
viability, T/C (second compound 0.00949 µM, first compound 10 µM): 36%
viability, T/C (second compound 0.03 µM, first compound 0.0316 µM): 86.5%
viability, T/C (second compound 0.03 µM, first compound 0.1 µM): 75.8%
viability, T/C (second compound 0.03 µM, first compound 0.316 µM): 59.8%
viability, T/C (second compound 0.03 µM, first compound 1 µM): 57.2%
viability, T/C (second compound 0.03 µM, first compound 3.16 µM): 40.5%
viability, T/C (second compound 0.03 µM, first compound 10 µM): 34%
viability, T/C (second compound 0.0949 µM, first compound 0.0316 µM): 79.5%
viability, T/C (second compound 0.0949 µM, first compound 0.1 µM): 64.7%
viability, T/C (second compound 0.0949 µM, first compound 0.316 µM): 57%
viability, T/C (second compound 0.0949 µM, first compound 1 µM): 46%
viability, T/C (second compound 0.0949 µM, first compound 3.16 µM): 39.2%
viability, T/C (second compound 0.0949 µM, first compound 10 µM): 31.8%
viability, T/C (second compound 0.3 µM, first compound 0.0316 µM): 69.5%
viability, T/C (second compound 0.3 µM, first compound 0.1 µM): 52%
viability, T/C (second compound 0.3 µM, first compound 0.316 µM): 45%
viability, T/C (second compound 0.3 µM, first compound 1 µM): 36.9%
viability, T/C (second compound 0.3 µM, first compound 3.16 µM): 34.2%
viability, T/C (second compound 0.3 µM, first compound 10 µM): 29.4%

— PubChem BioAssay AID2060895 (Molecular Pharmacology Branch, DTP, NCI, 2025)
